Results as given in patent US20200181117A1, “SUBSTITUTED 3-HETEROARYLOXY-1H-PYRAZOLES AND SALTS THEREOF AND THEIR USE AS HERBICIDAL ACTIVE SUBSTANCES” (BAYER CROPSCIENCE AKTIENGESELLSCHAFT, priority 2017, published 2020).

What was measured:
Assay type in all cases: in vivo
Viola tricolor [1] = test: Post-emergence herbicidal action; settings: 1280 g/ha, rated visually after about 3 weeks vs untreated controls
In short: (§1)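 Visual rating against untreated plants, about 3 weeks post-treatment, on a 0-100% scale where 100% means plant death. Treatment: 1280 g/ha of WP/EC preparations with 0.5% additive in 600 l/ha water, sprayed on one-leaf-stage weeds grown in greenhouse sandy loam.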

Alopecurus myosuroides [2] = test: Post-emergence herbicidal action; settings: 1280 g/ha, rated visually after about 3 weeks vs untreated controls
In short: as §1

Abutilon theophrasti [3] = test: Post-emergence herbicidal action; settings: 1280 g/ha, rated visually after about 3 weeks vs untreated controls
In short: as §1

Setaria viridis [4] = test: Post-emergence herbicidal action; settings: 1280 g/ha, rated visually after about 3 weeks vs untreated controls
In short: as §1

Lolium rigidum [5] = test: Post-emergence herbicidal action; settings: 1280 g/ha, rated visually after about 3 weeks vs untreated controls
In short: as §1

Amaranthus retroflexus [6] = test: Post-emergence herbicidal action; settings: 1280 g/ha, rated visually after about 3 weeks vs untreated controls
In short: as §1

Stellaria media [7] = test: Post-emergence herbicidal action; settings: 1280 g/ha, rated visually after about 3 weeks vs untreated controls
In short: as §1

Echinochloa crus-galli [8] = test: Post-emergence herbicidal action; settings: 1280 g/ha, rated visually after about 3 weeks vs untreated controls
In short: as §1

Polygonum convolvulus [9] = test: Post-emergence herbicidal action; settings: 1280 g/ha, rated visually after about 3 weeks vs untreated controls
In short: as §1

Avena fatua [10] = test: Post-emergence herbicidal action; settings: 1280 g/ha, rated visually after about 3 weeks vs untreated controls
In short: as §1

Viola tricolor [11] = test: Pre-emergence herbicidal action; settings: 1280 g/ha, scored visually after about 3 weeks vs untreated controls
In short: (§2)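 Test compounds at 1280 g/ha are sprayed onto soil covering freshly sown seeds, using 600 l/ha water with 0.5% additive. Pots stay in the greenhouse about 3 weeks, then activity is rated visually in percent against untreated controls.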

Alopecurus myosuroides [12] = test: Pre-emergence herbicidal action; settings: 1280 g/ha, scored visually after about 3 weeks vs untreated controls
In short: as §2

Veronica persica [13] = test: Pre-emergence herbicidal action; settings: 1280 g/ha, scored visually after about 3 weeks vs untreated controls
In short: as §2

Abutilon theophrasti [14] = test: Pre-emergence herbicidal action; settings: 1280 g/ha, scored visually after about 3 weeks vs untreated controls
In short: as §2

Matricaria inodora = test: Pre-emergence herbicidal action; settings: 1280 g/ha, scored visually after about 3 weeks vs untreated controls
In short: as §2

Setaria viridis [15] = test: Pre-emergence herbicidal action; settings: 1280 g/ha, scored visually after about 3 weeks vs untreated controls
In short: as §2

Lolium rigidum [16] = test: Pre-emergence herbicidal action; settings: 1280 g/ha, scored visually after about 3 weeks vs untreated controls
In short: as §2

Amaranthus retroflexus [17] = test: Pre-emergence herbicidal action; settings: 1280 g/ha, scored visually after about 3 weeks vs untreated controls
In short: as §2

Stellaria media [18] = test: Pre-emergence herbicidal action; settings: 1280 g/ha, scored visually after about 3 weeks vs untreated controls
In short: as §2

Pharbitis purpurea [19] = test: Pre-emergence herbicidal action; settings: 1280 g/ha, scored visually after about 3 weeks vs untreated controls
In short: as §2

Echinochloa crus-galli [20] = test: Pre-emergence herbicidal action; settings: 1280 g/ha, scored visually after about 3 weeks vs untreated controls
In short: as §2

Hordeum murinum [21] = test: Pre-emergence herbicidal action; settings: 1280 g/ha, scored visually after about 3 weeks vs untreated controls
In short: as §2

Avena fatua [22] = test: Pre-emergence herbicidal action; settings: 1280 g/ha, scored visually after about 3 weeks vs untreated controls
In short: as §2

Pharbitis purpurea [23] = test: Post-emergence herbicidal action; settings: 1280 g/ha, rated visually after about 3 weeks vs untreated controls
In short: as §1

Ipomoea purpurea = test: Post-emergence herbicidal action; settings: 1280 g/ha, rated visually after about 3 weeks vs untreated controls
In short: as §1

Polygonum convolvulus [24] = test: Pre-emergence herbicidal action; settings: 1280 g/ha, scored visually after about 3 weeks vs untreated controls
In short: as §2

Hordeum murinum [25] = test: Post-emergence herbicidal action; settings: 1280 g/ha, rated visually after about 3 weeks vs untreated controls
In short: as §1

Veronica persica [26] = test: Post-emergence herbicidal action; settings: 1280 g/ha, rated visually after about 3 weeks vs untreated controls
In short: as §1

Compound | herbicidal activity on Viola tricolor (Viola tricolor [1]) [%] | herbicidal activity on Alopecurus myosuroides (Alopecurus myosuroides [2]) [%] | herbicidal activity on Setaria viridis (Setaria viridis [4]) [%] | herbicidal activity on Amaranthus retroflexus (Amaranthus retroflexus [6]) [%] | herbicidal activity on Echinochloa crus-galli (Echinochloa crus-galli [8]) [%] | herbicidal activity on Polygonum convolvulus (Polygonum convolvulus [9]) [%] | herbicidal activity on Viola tricolor (Viola tricolor [11]) [%] | herbicidal activity on Alopecurus myosuroides (Alopecurus myosuroides [12]) [%] | herbicidal activity on Veronica persica (Veronica persica [13]) [%] | herbicidal activity on Abutilon theophrasti (Abutilon theophrasti [14]) [%] | herbicidal activity on Matricaria inodora (Matricaria inodora) [%] | herbicidal activity on Setaria viridis (Setaria viridis [15]) [%] | herbicidal activity on Lolium rigidum (Lolium rigidum [16]) [%] | herbicidal activity on Amaranthus retroflexus (Amaranthus retroflexus [17]) [%] | herbicidal activity on Stellaria media (Stellaria media [18]) [%] | herbicidal activity on Echinochloa crus-galli (Echinochloa crus-galli [20]) [%] | herbicidal activity on Hordeum murinum (Hordeum murinum [21]) [%] | herbicidal activity on Avena fatua (Avena fatua [22]) [%] | herbicidal activity on Pharbitis purpurea (Pharbitis purpurea [23]) [%] | herbicidal activity on Polygonum convolvulus (Polygonum convolvulus [24]) [%] | further results
Cc1c(Sc2ccc(F)c(F)c2)c(Oc2ncccn2)nn1C [Example I-036] | 100 | 90 | 90 | 100 | 90 | 100 | 100 | 90 | 100 | 100 | 90 | 100 | 100 | 90 | 100 | 100 | 100 | 90 |  |  | herbicidal activity on Abutilon theophrasti (Abutilon theophrasti [3]): 90%; herbicidal activity on Lolium rigidum (Lolium rigidum [5]): 90%; herbicidal activity on Stellaria media (Stellaria media [7]): 90%; herbicidal activity on Avena fatua (Avena fatua [10]): 100%; herbicidal activity on Pharbitis purpurea (Pharbitis purpurea [19]): 80%
COc1cnc(Oc2nn(C)c(C)c2Sc2ccc(Cl)cc2)nc1 [Example I-066] | 100 |  |  | 80 | 80 |  | 100 | 80 | 100 | 90 | 100 | 100 |  | 100 | 100 | 100 | 100 |  | 80 | 90 | herbicidal activity on Ipomoea purpurea (Ipomoea purpurea): 80%
Cc1c(Sc2cccc(Cl)c2)c(Oc2ncccn2)nn1C [Example I-069] | 100 | 100 | 80 | 100 | 80 | 100 | 100 | 100 | 100 | 100 | 100 | 100 | 100 | 100 | 100 | 100 | 100 | 100 |  | 100 | herbicidal activity on Abutilon theophrasti (Abutilon theophrasti [3]): 80%; herbicidal activity on Hordeum murinum (Hordeum murinum [25]): 80%
COc1cnc(Oc2nn(C)c(C)c2Sc2ccc(F)cc2)nc1 [Example I-089] |  | 90 | 80 |  |  | 90 | 100 | 90 | 100 | 100 | 100 | 100 | 90 | 100 | 100 | 100 | 90 | 80 |  | 90 | herbicidal activity on Avena fatua (Avena fatua [10]): 80%
Cn1cc(Sc2ccc(F)cc2)c(Oc2ncc(Cl)cn2)n1 [Example I-095] | 100 |  |  | 100 | 80 |  | 100 | 100 | 100 | 100 | 100 | 100 | 100 | 100 | 100 | 100 | 100 | 100 | 80 | 90 | herbicidal activity on Ipomoea purpurea (Ipomoea purpurea): 80%
Cc1c(Sc2ccc(F)cc2Cl)c(Oc2ncccn2)nn1C [Example I-135] | 100 |  |  | 100 |  |  | 100 | 100 | 100 | 100 | 90 | 100 | 90 | 100 | 100 | 100 | 80 | 80 | 80 | 90 | herbicidal activity on Stellaria media (Stellaria media [7]): 90%; herbicidal activity on Ipomoea purpurea (Ipomoea purpurea): 80%
Cc1c(Sc2ccc(F)c(F)c2)c(Oc2cnccn2)nn1C [Example I-141] | 90 | 80 | 90 | 100 | 100 | 100 | 100 | 90 | 100 | 100 | 100 | 100 | 90 | 100 | 90 | 100 | 80 | 80 | 80 | 100 | herbicidal activity on Veronica persica (Veronica persica [26]): 100%; herbicidal activity on Abutilon theophrasti (Abutilon theophrasti [3]): 90%; herbicidal activity on Stellaria media (Stellaria media [7]): 100%; herbicidal activity on Avena fatua (Avena fatua [10]): 80%
Cc1c(Sc2cccc(F)c2)c(Oc2ncc(F)cn2)nn1C [Example I-158] | 100 | 100 | 100 | 100 | 100 | 100 | 100 | 100 | 100 | 100 | 100 | 100 | 100 | 100 | 100 | 100 | 100 | 100 | 80 | 100 | herbicidal activity on Abutilon theophrasti (Abutilon theophrasti [3]): 90%; herbicidal activity on Lolium rigidum (Lolium rigidum [5]): 100%; herbicidal activity on Stellaria media (Stellaria media [7]): 90%; herbicidal activity on Avena fatua (Avena fatua [10]): 80%
